Measurements published in patent US20130085105A1, “Transdermal Administration Of Peptides” (The Provost, Fellows and Scholars of the College of Holy …, priority 2010, published 2013).

Experiments:
[1] = pH of donor vehicles containing Compound B oleate; assay type: physicochemical
Experimental: The donor vehicles described herein were prepared at or close to neutral pH; this pH is close to the pH at which the fatty acid salts were synthesized and isolated. Because this work focused upon fatty acid peptide salts, a neutral pH was preferred to maintain molecular pairing. As described by Fini et al. (Int. J. Pharm., 187:163-173, 1999), adverse pH conditions can cause salt/ion pairs to dissociate, resulting in the loss of many properties beneficial to increasing transdermal flux, for example lipophilicity. […] Significant dissociation would have led to distortion of the flux profiles due to the formation of free oleic acid, in itself a potent penetration enhancer.

[2] = In vitro transdermal permeation, diffusion cell, pig epidermis; assay type: in vitro ADME, domestic pigs
Experimental: The viable epidermal layer was removed from the flanks of freshly sacrificed four month-old female domestic pigs. The flank area of each animal was carefully shaved and the upper 200 μm of skin (Meyer, W., et al., Curr. Prob. Dermatol., 7: 39-52, 1978; de Jalón, et al., J. Control. Rel., 75:191-197, 2001) was harvested using an electric dermatome (Robbins Instruments, Chatham, N.J., U.S.A.). Pigskin epidermal specimens were frozen at −18° C. between layers of PBS-soaked tissue paper enclosed in aluminum foil for up to two weeks prior to use in in vitro permeation studies.
A custom made finite dosing diffusion cell (AGB Scientific, Dublin, Ireland, FIG. 1) based upon and modified from the Keshary-Chien type diffusion cell was used for in vitro permeation studies.
Three to five diffusion cells were used in each permeation experiment and monitoring was performed over a 48 hour period. The cells were linked in series to a thermostatically controlled circulation bath set at 35° C. to mimic human skin surface temperature. Each cell was placed on a stir-plate set at a defined stirring rate of 1,000 rpm. The surface area for permeation provided by each cell was 3.14 cm^2.
Data collected from each permeation study included:
1) the average maximum flux obtained in 48 hours (Jmax),
2) the total absorption characterized as the total weight of peptide delivered transdermally into the receiver compartment over a 48 hour period,
3) the lag time to detectable flux which was equivalent to the latest sampling time at which no peptide was detectable by HPLC analysis of the receiver solution, and
4) an equivalent 48-hour steady state flux was determined by obtaining the slope of the best-fit line for a plot of cumulative flux per unit area versus time (described by McDaid, D. M. et al., Int. J. Pharm., 133:71-83, 1996).
Fresh hairless mouse skin samples or fresh or freshly thawed pig skin samples were mounted onto the diffusion cell with the SC topmost and in contact with the donor system. A rubber or plastic ring was placed on top of the skin sample to secure it in position. The combination of the diffusion cell top, the skin and the rubber ring was securely fastened together by means of a threaded cap. A recorded volume of receiver solution was added to the receiver compartment and maintained at 35° C. The receiver solution was 60/40 (v/v) PBS/propylene glycol (pH 7.1). The propylene glycol fraction was used to increase the solubility of the somatostatin-fatty acid salts. Previous work reported by Morgan et al. (J. Pharm. Sci., 87:1213-1218, 1998) has shown that a 50/50 water/propylene glycol receptor solution had no detrimental effect on the barrier integrity of both hairless mouse and porcine skin.
The receiver solution was allowed to equilibrate at 35° C. for 30 minutes. The experiment was initiated by the application of 1 ml of donor solution containing approximately 5 mg free base peptide in DMSO to the skin surface followed by sealing of the donor compartment with Parafilm®. A narrow-bore hypodermic needle was used to withdraw 1 ml samples from the receiver compartment via the sampling port; at each sampling time, an equal volume of drug-free receiver solution was immediately added back to the receiver compartment. Samples were analyzed by HPLC.
HPLC determination of peptide content in the receiver solution along with the known surface area of skin used (3.14 cm^2) allowed for calculation of transdermal flux (in units of μg/cm^2/hr) for each time point. Panels 1 and 2 of FIG. 2 show flux profiles obtained for the oleate salts of Compound A and Compound B in DMSO which far exceeded the flux profiles for the myristate, octanoate, decanoate, linoleate, nonanote, acetate and laurate salts of Compound A as well as the acetate salt of Compound B in DMSO. […]

[3] = Partition coefficients n-octanol/deionized water and n-octanol/PBS; assay type: physicochemical; conditions: 24 hours
Experimental: The partition coefficients for all somatostatin-fatty acid salts in either n-octanol/deionized water or n-octanol/PBS (pH 7.4) were determined. The partition coefficient is the concentration of Compound A or Compound B in the n-octanol phase divided by the concentration in the aqueous or PBS phase.
An accurately weighed sample of each salt was placed into 4 ml HPLC vials sealed with caps containing pierceable silicone septa and dissolved in 2 ml n-octanol. Two ml of either deionized water or PBS were added to each sample; the vials were vortexed vigorously and incubated at 37° C. with agitation for 24 hours in a shaker-incubator at 400 rpm.
Following incubation, two samples were withdrawn from each vial. Once the layers had fully partitioned, a syringe was used to draw a sample of the aqueous phase or the n-octanol phase. Samples from each phase were diluted appropriately with deionized or methanol prior to HPLC analysis.

[4] = pig epidermis overlaid with microporous polypropylene membrane, EtOH/Water/Cineole + 5% (w/v) HPC, 5 mg/ml
[5] = pig epidermis, donor 55% EtOH 40% Water 5% Cineole, 5 mg/ml free base peptide
[6] = pig epidermis, donor 80% Prop. Glycol 15% Decanol 5% Cineole
[7] = pig epidermis, donor 80% Prop. Glycol 15% Dodecanol 5% Cineole
[8] = n-octanol/deionized water, 37° C.

Substance: [4-(2-hydroxyethyl)]-1-piperazinylacetyl-D-Phe-c(Cys-Tyr-D-Trp-Lys-Abu-Cys)-Thr-NH2 [Compound B di-oleate]
- pH ([1]; approx. 5 mg/ml in 55% EtOH 40% H2O 5% 1,8-Cineole): 6.89
- pH ([1]; approx. 5 mg/ml in 80% Prop. Glycol 15% Decanol 5% 1,8-Cineole): 7.08
- pH ([1]; approx. 5 mg/ml in 80% Prop. Glycol 15% Dodecanol 5% 1,8-Cineole): 7.56
- Jmax [2, 4]: 4.200 μg/cm^2/hr
- Jss [2, 4]: 0.309 μg/cm^2/hr
- Lag Time [2, 4]: 1 h
- Total Absorption [2, 4]: 56.89 μg/48 hr
- Jmax [2, 5]: 9.224 μg/cm^2/hr
- Jss [2, 5]: 5.552 μg/cm^2/hr
- Lag Time [2, 5]: 1 h
- Total Absorption [2, 5]: 814.44 μg/48 hr
- Jmax [2, 6]: 6.085 μg/cm^2/hr
- Jss [2, 6]: 4.539 μg/cm^2/hr
- Lag Time [2, 6]: 3.5 h
- Total Absorption [2, 6]: 917.18 μg/48 hr
- Jmax [2, 7]: 3.983 μg/cm^2/hr
- Jss [2, 7]: 3.335 μg/cm^2/hr
- Lag Time [2, 7]: 5 h
- Total Absorption [2, 7]: 600.35 μg/48 hr
- Log KOPBS ([3]; n-octanol/PBS pH 7.4, 37° C.): −1.398
- O/PBS Coefficient (KOPBS) ([3]; n-octanol/PBS pH 7.4, 37° C.): 0.04
- Log KOW [3, 8]: 2.532
- O/W Coefficient (KOW) [3, 8]: 340.43
